From ChEMBL document CHEMBL1201862, “PubChem BioAssay data set” (2004)
The source made the active and inactive calls.

Key:
[1] = molecular target: Induced myeloid leukemia cell differentiation protein Mcl-1 (Homo sapiens, UniProt Q07820); assay: MCL1-BIM BH3 interaction inhibitors, dose response, biochemical, fluorescence polarization, BIM-BH3 peptide, 1536-well (AID 2217)
Bcl-2-like protein 1 = Bcl-2-like protein 1 (Homo sapiens, UniProt Q07817); assay: BCL-XL inhibitors, dose response, selectivity assay for MCL1 inhibitor project, biochemical, fluorescence polarization, 1536-well (AID 2218)
[2] = NIH-3T3 fibroblast cytotoxicity, dose response, cytotoxicity control, cell-based, fluorescence, Alamar Blue, secondary assay (AID 2327); type: functional;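 further: NIH-3T3 mouse fibroblasts cultured with fluconazole at 8 µg/mL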
[3] = C. albicans growth with fluconazole, confirmation, fluorescence, retest (AID 2467); type: functional, cell-based
[4] = molecular target: T1, Sphingosine 1-phosphate receptor 4 (Homo sapiens, UniProt O95977); assay: Fluorescence dose response cell-based high throughput screening assay for antagonists of the Sphingosine 1-Phosphate Receptor 4 (S1P4). [Related pubchem assays: 1524 (Confirmation in triplicates.), 1510 (Primary screen.)]; type: functional
T1 sequence (O95977 whole entry): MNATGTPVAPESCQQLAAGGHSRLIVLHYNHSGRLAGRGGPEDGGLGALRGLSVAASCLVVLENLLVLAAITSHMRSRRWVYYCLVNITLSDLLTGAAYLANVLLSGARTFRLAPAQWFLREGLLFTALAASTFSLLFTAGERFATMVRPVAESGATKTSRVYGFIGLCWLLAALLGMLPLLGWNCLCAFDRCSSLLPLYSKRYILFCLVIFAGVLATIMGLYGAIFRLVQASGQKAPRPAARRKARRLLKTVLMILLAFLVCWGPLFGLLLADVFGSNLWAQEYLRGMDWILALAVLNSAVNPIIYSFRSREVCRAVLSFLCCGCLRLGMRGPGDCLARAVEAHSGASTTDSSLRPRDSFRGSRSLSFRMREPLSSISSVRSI

[5] = molecular target: Sphingosine 1-phosphate receptor 1 (Homo sapiens, UniProt P21453); type: functional;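 further: Tango beta-arrestin reporter U2OS cells stimulated with S1P near its EC80; inhibitor potency meaning antagonism of receptor activation by the natural agonist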
[6] = molecular target: T2, Heat shock factor protein 1 (Mus musculus, UniProt P38532); assay: HSF1 potentiators in luciferase reporter cells, confirmation, cell-based, NIH3T3, luminescence, dose retest (AID 435004); type: functional;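 further: stress induced by proteasome inhibitor MG132 added 30 min after compound; luciferase reporter driven by HSF1 response element in NIH3T3 cells; actives raise luminescence as potentiators of the MG132 stress response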
T2 sequence (P38532 whole entry): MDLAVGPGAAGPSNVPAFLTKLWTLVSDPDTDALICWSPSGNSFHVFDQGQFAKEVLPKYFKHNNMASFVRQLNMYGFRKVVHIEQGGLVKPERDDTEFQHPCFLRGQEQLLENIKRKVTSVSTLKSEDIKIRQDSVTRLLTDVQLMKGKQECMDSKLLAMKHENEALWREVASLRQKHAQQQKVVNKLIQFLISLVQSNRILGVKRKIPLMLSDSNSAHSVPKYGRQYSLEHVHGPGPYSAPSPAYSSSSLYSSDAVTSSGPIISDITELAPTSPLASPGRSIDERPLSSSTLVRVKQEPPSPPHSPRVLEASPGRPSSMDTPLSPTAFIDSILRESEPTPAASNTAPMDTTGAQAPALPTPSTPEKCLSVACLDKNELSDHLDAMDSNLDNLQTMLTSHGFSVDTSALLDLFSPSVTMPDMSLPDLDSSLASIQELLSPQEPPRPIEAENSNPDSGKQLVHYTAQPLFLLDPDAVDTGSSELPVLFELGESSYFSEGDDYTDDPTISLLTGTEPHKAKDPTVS

[7] = molecular target: T3, Replicative DNA helicase DnaB (Mycobacterium tuberculosis, UniProt P9WMR3); assay: DnaB intein splicing inhibitors, dose response, biochemical, cell-free fluorescence (AID 449749); type: functional
T3 sequence (P9WMR3 whole entry): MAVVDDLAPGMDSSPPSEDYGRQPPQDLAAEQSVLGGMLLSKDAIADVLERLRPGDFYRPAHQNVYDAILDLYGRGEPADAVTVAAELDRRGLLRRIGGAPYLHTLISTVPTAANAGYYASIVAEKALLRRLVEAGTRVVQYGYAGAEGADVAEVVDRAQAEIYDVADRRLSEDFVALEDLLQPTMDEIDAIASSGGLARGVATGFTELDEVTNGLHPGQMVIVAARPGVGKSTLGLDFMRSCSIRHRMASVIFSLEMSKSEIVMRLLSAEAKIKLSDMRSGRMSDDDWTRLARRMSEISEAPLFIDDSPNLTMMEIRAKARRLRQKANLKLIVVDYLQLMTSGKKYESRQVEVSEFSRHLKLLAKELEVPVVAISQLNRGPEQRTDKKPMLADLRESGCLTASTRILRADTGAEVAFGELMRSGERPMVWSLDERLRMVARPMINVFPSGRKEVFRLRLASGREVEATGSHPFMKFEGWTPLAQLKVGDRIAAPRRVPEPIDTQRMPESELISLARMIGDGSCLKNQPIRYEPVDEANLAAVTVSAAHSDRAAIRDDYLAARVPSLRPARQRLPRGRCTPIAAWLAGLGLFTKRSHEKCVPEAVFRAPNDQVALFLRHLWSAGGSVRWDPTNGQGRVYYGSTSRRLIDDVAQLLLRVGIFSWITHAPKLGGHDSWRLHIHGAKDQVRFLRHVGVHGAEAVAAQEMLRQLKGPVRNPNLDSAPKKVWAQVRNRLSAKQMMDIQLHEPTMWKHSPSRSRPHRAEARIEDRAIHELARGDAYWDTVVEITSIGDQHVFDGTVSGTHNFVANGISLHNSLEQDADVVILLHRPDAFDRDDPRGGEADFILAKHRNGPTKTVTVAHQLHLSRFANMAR

Protein RecA = molecular target: T4, Protein RecA (Mycobacterium tuberculosis, UniProt P9WHJ3); assay: Fluorescence Cell-Free Homogeneous Dose Retest to Identify Inhibitors of RecA-Intein Splicing Activity. [Related pubchem assays (depositor defined):AID2097, AID2223, AID489010, AID492950]; type: functional
T4 sequence (P9WHJ3 whole entry): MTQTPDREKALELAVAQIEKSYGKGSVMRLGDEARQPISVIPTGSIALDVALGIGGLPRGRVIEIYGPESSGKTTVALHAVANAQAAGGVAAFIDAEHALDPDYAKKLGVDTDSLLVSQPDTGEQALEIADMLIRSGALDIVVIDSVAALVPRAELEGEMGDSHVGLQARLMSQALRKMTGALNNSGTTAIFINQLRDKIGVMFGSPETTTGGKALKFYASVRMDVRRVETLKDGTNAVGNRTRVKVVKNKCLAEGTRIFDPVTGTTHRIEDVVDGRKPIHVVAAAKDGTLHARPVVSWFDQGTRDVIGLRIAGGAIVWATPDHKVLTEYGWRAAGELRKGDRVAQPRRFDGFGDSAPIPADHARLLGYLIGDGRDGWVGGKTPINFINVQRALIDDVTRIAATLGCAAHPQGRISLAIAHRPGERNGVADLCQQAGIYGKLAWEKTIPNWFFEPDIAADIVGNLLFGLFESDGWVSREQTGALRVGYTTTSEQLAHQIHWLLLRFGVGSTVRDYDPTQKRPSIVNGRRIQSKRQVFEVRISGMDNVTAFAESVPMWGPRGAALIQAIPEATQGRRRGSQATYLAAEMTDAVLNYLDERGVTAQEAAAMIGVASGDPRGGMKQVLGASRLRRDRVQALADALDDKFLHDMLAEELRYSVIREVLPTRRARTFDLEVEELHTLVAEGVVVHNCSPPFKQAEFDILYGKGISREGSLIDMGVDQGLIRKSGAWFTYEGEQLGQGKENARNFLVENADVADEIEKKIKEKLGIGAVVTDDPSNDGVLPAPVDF

Sequence of Induced myeloid leukemia cell differentiation protein Mcl-1 (Q07820 whole entry): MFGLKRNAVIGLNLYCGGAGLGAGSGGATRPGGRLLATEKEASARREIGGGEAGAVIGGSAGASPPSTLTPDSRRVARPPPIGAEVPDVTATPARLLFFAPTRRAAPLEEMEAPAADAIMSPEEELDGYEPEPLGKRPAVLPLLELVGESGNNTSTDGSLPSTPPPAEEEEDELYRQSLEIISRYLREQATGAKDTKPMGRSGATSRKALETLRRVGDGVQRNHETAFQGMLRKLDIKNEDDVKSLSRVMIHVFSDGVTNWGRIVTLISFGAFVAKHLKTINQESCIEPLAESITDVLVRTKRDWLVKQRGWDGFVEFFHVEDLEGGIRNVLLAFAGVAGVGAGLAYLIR
Sequence of Bcl-2-like protein 1 (Q07817 whole entry): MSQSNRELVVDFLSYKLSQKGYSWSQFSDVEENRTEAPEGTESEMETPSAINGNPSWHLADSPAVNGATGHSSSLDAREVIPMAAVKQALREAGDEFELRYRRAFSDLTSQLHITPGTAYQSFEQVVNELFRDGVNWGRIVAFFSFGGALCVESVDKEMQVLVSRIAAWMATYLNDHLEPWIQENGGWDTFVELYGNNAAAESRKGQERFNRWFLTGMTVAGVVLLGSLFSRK
Sequence of Sphingosine 1-phosphate receptor 1 (P21453 whole entry): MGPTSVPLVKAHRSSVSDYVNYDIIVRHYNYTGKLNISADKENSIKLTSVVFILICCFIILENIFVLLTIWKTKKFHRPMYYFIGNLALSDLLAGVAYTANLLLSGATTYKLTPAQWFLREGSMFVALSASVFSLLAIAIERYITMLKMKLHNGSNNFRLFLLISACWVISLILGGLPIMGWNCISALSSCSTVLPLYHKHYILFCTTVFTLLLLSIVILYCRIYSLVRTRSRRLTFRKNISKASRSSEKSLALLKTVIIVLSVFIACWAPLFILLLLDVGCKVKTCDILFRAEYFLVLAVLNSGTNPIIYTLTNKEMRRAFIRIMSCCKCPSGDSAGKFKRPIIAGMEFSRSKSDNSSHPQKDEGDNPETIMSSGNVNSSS

SMILES: Cc1ccccc1OCC(=O)OCC(=O)Nc1ncc(Cl)c(C)c1Cl
- IC50 [1]: 15.7 µM (not active)
- IC50 (Bcl-2-like protein 1): 30.4 µM (not active)

SMILES: COc1cccc(-n2nnnc2S(C)(=O)=O)c1
- EC50 [2]: 3.96 µM (inconclusive)
- EC50 [3]: 1.76 µM (active)
- IC50 [4]: 1.26 µM (active)
- IC50 [5]: 23.6 µM (not active)
- EC50 [6]: 6.59 µM (active)
- AC50 [7]: 3.14 µM (active)
- EC50 (Protein RecA): 1.1 µM (active)
